The supplement of paper PMC8617591

Legend:
[1] = test system: Mycobacterium tuberculosis Erdman (autoluminescent); assay: total FIC50 (Loewe) at 50% inhibition, three-drug combination (log2); higher = more antagonistic
Method: (§1)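 DiaMOND equipotent three-drug combination dose responses (10 doses, 1.5- or 2-fold spacing, centred on IC90) against autoluminescent M. tuberculosis Erdman in 8 in vitro models. Read-out is OD600, or luminescence for the intracellular and dormancy models, normalised to untreated wells. Hill-fit Einf, AUC25 and GRinf are potency metrics; FIC50 and FIC90 are total Loewe fractional inhibitory concentrations as log2 (negative = synergy).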

[2] = test system: Mycobacterium tuberculosis Erdman (autoluminescent); assay: total FIC90 (Loewe) at 90% inhibition, three-drug combination (log2); higher = more antagonistic
Method: as §1

[3] = test system: Mycobacterium tuberculosis Erdman (autoluminescent); assay: Einf, fitted maximum growth inhibition of three-drug combination (fraction); higher = stronger maximal inhibition
Method: as §1

[4] = test system: Mycobacterium tuberculosis Erdman (autoluminescent); assay: AUC25, normalised area under dose response up to IC25 (three-drug combination) (fraction (0-1)); higher = more potent at low dose
Method: as §1

[5] = test system: Mycobacterium tuberculosis Erdman (autoluminescent); assay: GRinf, maximum normalised growth rate inhibition (three-drug combination) (unitless (-1 to 1)); higher = less effect (negative = killing)
Method: as §1

[6] = in vitro model: acidic pH 5.7, time point: constant (~7 days, model-specific)
[7] = in vitro model: acidic pH 5.7, time point: terminal (~4-5 doublings, model-specific)
[8] = in vitro model: butyrate, time point: constant (~7 days, model-specific)
[9] = in vitro model: butyrate, time point: terminal (~4-5 doublings, model-specific)
[10] = in vitro model: cholesterol 0.05 mM, time point: terminal (~4-5 doublings, model-specific)
[11] = in vitro model: cholesterol-high 0.2 mM, time point: constant (~7 days, model-specific)
[12] = in vitro model: cholesterol-high 0.2 mM, time point: terminal (~4-5 doublings, model-specific)
[13] = in vitro model: dormancy (butyrate + nitrate, low O2), time point: constant (~7 days, model-specific)
[14] = in vitro model: dormancy (butyrate + nitrate, low O2), time point: terminal (~4-5 doublings, model-specific)
[15] = in vitro model: standard 7H9 glycerol, time point: constant = terminal
[16] = in vitro model: valerate, time point: constant (~7 days, model-specific)
[17] = in vitro model: valerate, time point: terminal (~4-5 doublings, model-specific)
[18] = in vitro model: intracellular J774, time point: constant = terminal
[19] = in vitro model: cholesterol 0.05 mM, time point: constant (~7 days, model-specific)

CC[C@@H](CO)NCCN[C@@H](CC)CO [ethambutol] + NC(=O)c1cnccn1 [pyrazinamide] + CO[C@H]1/C=C/O[C@@]2(C)Oc3c(C)c(O)c4c(O)c(c(/C=N/N5CCN(C6CCCC6)CC5)c(O)c4c3C2=O)NC(=O)/C(C)=C\C=C\[C@H](C)[C@H](O)[C@@H](C)[C@@H](O)[C@@H](C)[C@H](OC(C)=O)[C@@H]1C [rifapentine]
total FIC50 [1, 6]: -0.399
total FIC50 [1, 7]: -0.0475
total FIC50 [1, 8]: 0.221
total FIC50 [1, 9]: 0.309
total FIC50 [1, 10]: 1.58
total FIC50 [1, 11]: 1.2
total FIC50 [1, 12]: 1.46
total FIC50 [1, 13]: -0.0129
total FIC50 [1, 14]: 0.284
total FIC50 [1, 15]: 0.158
total FIC50 [1, 16]: 0.105
total FIC50 [1, 17]: 0.338
total FIC90 [2, 9]: -0.154
total FIC90 [2, 12]: 1.21
total FIC90 [2, 14]: 1.88
total FIC90 [2, 18]: -1.88
total FIC90 [2, 17]: -0.692
Einf [3, 6]: 0.885
Einf [3, 7]: 0.98
Einf [3, 8]: 0.911
Einf [3, 9]: 0.958
Einf [3, 19]: 0.659
Einf [3, 10]: 0.886
Einf [3, 11]: 0.941
Einf [3, 12]: 0.999
Einf [3, 13]: 0.87
Einf [3, 14]: 0.984
Einf [3, 18]: 0.977
Einf [3, 15]: 0.883
Einf [3, 16]: 0.821
Einf [3, 17]: 0.909
AUC25 [4, 6]: 0.0954
AUC25 [4, 7]: 0.0652
AUC25 [4, 8]: 0.0808
AUC25 [4, 9]: 0.0667
AUC25 [4, 19]: 0.116
AUC25 [4, 10]: 0.11
AUC25 [4, 11]: 0.0322
AUC25 [4, 12]: 0.0395
AUC25 [4, 13]: 0.0922
AUC25 [4, 14]: 0.116
AUC25 [4, 15]: 0.0407
AUC25 [4, 16]: 0.0408
AUC25 [4, 17]: 0.0268
GRinf [5, 6]: -0.165
GRinf [5, 7]: -0.191
GRinf [5, 8]: 0.0172
GRinf [5, 9]: 0.025
GRinf [5, 19]: -0.834
GRinf [5, 10]: -0.315
GRinf [5, 11]: -0.414
GRinf [5, 12]: -0.679
GRinf [5, 13]: 0.301
GRinf [5, 14]: -0.233
GRinf [5, 18]: -0.419
GRinf [5, 15]: 0.165
GRinf [5, 16]: 0.114
GRinf [5, 17]: 0.11

COc1nc2ccc(Br)cc2cc1[C@@H](c1ccccc1)[C@@](O)(CCN(C)C)c1cccc2ccccc12 [bedaquiline] + CC(=O)NC[C@H]1CN(c2ccc(N3CCOCC3)c(F)c2)C(=O)O1 [linezolid] + CO[C@H]1/C=C/O[C@@]2(C)Oc3c(C)c(O)c4c(O)c(c(/C=N/N5CCN(C)CC5)c(O)c4c3C2=O)NC(=O)/C(C)=C\C=C\[C@H](C)[C@H](O)[C@@H](C)[C@@H](O)[C@@H](C)[C@H](OC(C)=O)[C@@H]1C [rifampicin]
total FIC50 [1, 6]: 0.731
total FIC50 [1, 7]: 0.737
total FIC50 [1, 8]: 0.177
total FIC50 [1, 9]: 0.082
total FIC50 [1, 19]: -0.0465
total FIC50 [1, 10]: 4.18
total FIC50 [1, 11]: 0.47
total FIC50 [1, 12]: 0.65
total FIC50 [1, 13]: 0.618
total FIC50 [1, 14]: 0.272
total FIC50 [1, 15]: 0.312
total FIC50 [1, 16]: 0.886
total FIC50 [1, 17]: 0.712
total FIC90 [2, 7]: 0.559
total FIC90 [2, 8]: -0.362
total FIC90 [2, 9]: -0.195
total FIC90 [2, 10]: -0.205
total FIC90 [2, 11]: 0.612
total FIC90 [2, 12]: 0.504
total FIC90 [2, 13]: 0.781
total FIC90 [2, 14]: 0.748
total FIC90 [2, 18]: -0.0392
total FIC90 [2, 15]: -0.401
total FIC90 [2, 17]: 0.323
Einf [3, 6]: 0.934
Einf [3, 7]: 0.99
Einf [3, 8]: 0.914
Einf [3, 9]: 0.955
Einf [3, 19]: 0.744
Einf [3, 10]: 0.937
Einf [3, 11]: 0.988
Einf [3, 12]: 1
Einf [3, 13]: 0.941
Einf [3, 14]: 0.982
Einf [3, 18]: 0.93
Einf [3, 15]: 0.938
Einf [3, 16]: 0.895
Einf [3, 17]: 0.953
AUC25 [4, 6]: 0.0983
AUC25 [4, 7]: 0.0798
AUC25 [4, 8]: 0.0847
AUC25 [4, 9]: 0.0706
AUC25 [4, 19]: 0.149
AUC25 [4, 10]: 0.135
AUC25 [4, 11]: 0.095
AUC25 [4, 12]: 0.0921
AUC25 [4, 13]: 0.0823
AUC25 [4, 14]: 0.0706
AUC25 [4, 15]: 0.0714
AUC25 [4, 16]: 0.0495
AUC25 [4, 17]: 0.0389
GRinf [5, 6]: -0.257
GRinf [5, 7]: -0.249
GRinf [5, 8]: -0.0141
GRinf [5, 9]: -0.0153
GRinf [5, 19]: -0.202
GRinf [5, 10]: -0.321
GRinf [5, 11]: -0.655
GRinf [5, 12]: -0.646
GRinf [5, 13]: 0.177
GRinf [5, 14]: -0.387
GRinf [5, 18]: -0.121
GRinf [5, 15]: -0.0288
GRinf [5, 16]: 0.063
GRinf [5, 17]: -0.012
